Experimental data reported in patent US20050119194A1, “Methods of using and compositions comprising thalidomide for treatment, modification and management of fibromyalgia” (priority 2003, published 2005).

System: fibromyalgia patients
Experiment: Clinical studies in fibromyalgia patients
Format: in vivo, human
Procedure: Pressure of approximate 4 kg/cm^2 is applied manually at multiple anatomic points of patients with fibromyalgia to evaluate pain and tenderness. A useful device for quantitating pain sensitivity is a pressure algometer or dolorimeter. […] Clinical studies are performed in fibromyalgia patients that have not responded to conventional physical therapy and have been present for at least one year. In one embodiment, thalidomide is administered in an amount of 100 to 400 mg per day to patients with fibromyalgia for from three months to one year. A baseline evaluation is performed for the effect of the drug treatment on pain intensity, impact of pain on activities of daily living, and consumption of other pain medications.

SMILES: O=C1CCC(N2C(=O)c3ccccc3C2=O)C(=O)N1 (racemic) [thalidomide, 2-(2,6-dioxo-3-piperidinyl)-1H-isoindole-1,3(2H)-dione]
- Tolerability of treatment (300 mg continuous oral daily dose): well-tolerated
- Analgesic effect in fibromyalgia (100 to 400 mg per day for three months to one year): analgesic benefit
